The values below come from patent US9364480B2, “Pharmaceutical composition for preventing or treating cancer, containing enoblock as active ingredient” (GWANGJU INSTITUTE OF SCIENCE AND TECHNOLOGY, priority 2012, dated 2016).

The target of test [1] is T1, Enolase purified from rabbit muscle (Oryctolagus cuniculus, UniProt P25704).
T1 construct: Enolase purified from rabbit muscle was purchased from Sigma-Aldrich; purchased Sigma-Aldrich; host or cells: rabbit muscle
The test is described as follows: Enolase activity assay. Format: biochemical. Particulars: purified enolase. As for the experimental part: FIG. 4. […] (a) Affinity chromatography study for ENOblock in HCT116 cancer cells. […] (b) Sequence identification for the enolase monomer subunit. […] Mascot scores above 100 were deemed to be significant. […] Twenty micrograms of cell lysate from YD-10B oral cancer cells or Huh7 hepatocytes were used as positive controls. […] As a positive control, ENOblock affinity matrix was incubated with 200 μg of HCT 116 cell lysate; 50 μg cell lysate from HCT116 cancer cells was used as a positive control for the enolase antibody.
Enolase purified from rabbit muscle was purchased from Sigma-Aldrich. A single unit of enolase is defined as the amount of enzyme that produces 1 μmol of phosphoenol pyruvate from phospho-D-glycerate/min in standard assay.^52 Enolase activity assay was measured at 37° C. by incubating pure enolase (3-9 U) in a buffer containing 50 mM imidazole-HCl (pH 6.8)(JUNSEI), 2.0 mM MgSO4 (JUNSEI) and 400 mM KCl (JUNSEI) in the absence or presence of ENOblock or NaF (Sigma). The reaction was initiated by adding 1 μmol of 2-phospho-D-glycerate, and the OD was measured after 10 min of reaction time with a spectrophometer at 240 nm.

The next test deals with zebrafish larvae. The test is described as follows: Measurement of glucose uptake in zebrafish (2-NBDG). The format is in vivo. Particulars: 10 μg/mL. As to the method:
FIG. 12. […] (a) Schematic of our approach to measure the effect of ENOblock treatment on […] in zebrafish.
At 72 hpf, larvae were placed into a 96-well plate (6 eggs/well in 200 μL E3 water supplemented with 0.2 mM 2-phenylthiourea; Sigma). Drug of interest was added for […]. The solution was then replaced with E3 water supplemented with 600 μM 2-NBDG and incubated for 3 h. The larva were washed with E3 water and anesthetized with 0.02% tricaine-supplemented E3 water. One larva was then placed on a chamber slide, containing 3% methylcellulose in E3 water, for fluorescent microscopy (Leica DM2500 microscope equipped with a DFC425 C digital camera). Images were captured at 50× magnification. The remaining 5 larvae where lysed with 120 μL of CelLytic M solution (Sigma-Aldrich) and sonication (4° C., 10″/5″ pulse, 10 min). Lysed larvae were centrifuged at 10000 rpm for 10 min. 100 μL of the supernatant was transferred to a 96-well plate and fluorescence was measured with a fluorescent microplate reader (SpectraMAX Gemini XS, Molecular Devices; λex=466 nm […]).

Test [2] addresses recombinant enolase from Schistosoma mansoni (Schistosoma mansoni, UniProt Q27877). Particulars: cited from earlier work.
The target of the next test is purified enolase (Schistosoma mansoni, UniProt Q27877). Particulars: cited from earlier work.
purified enolase, sequence (Q27877 whole entry): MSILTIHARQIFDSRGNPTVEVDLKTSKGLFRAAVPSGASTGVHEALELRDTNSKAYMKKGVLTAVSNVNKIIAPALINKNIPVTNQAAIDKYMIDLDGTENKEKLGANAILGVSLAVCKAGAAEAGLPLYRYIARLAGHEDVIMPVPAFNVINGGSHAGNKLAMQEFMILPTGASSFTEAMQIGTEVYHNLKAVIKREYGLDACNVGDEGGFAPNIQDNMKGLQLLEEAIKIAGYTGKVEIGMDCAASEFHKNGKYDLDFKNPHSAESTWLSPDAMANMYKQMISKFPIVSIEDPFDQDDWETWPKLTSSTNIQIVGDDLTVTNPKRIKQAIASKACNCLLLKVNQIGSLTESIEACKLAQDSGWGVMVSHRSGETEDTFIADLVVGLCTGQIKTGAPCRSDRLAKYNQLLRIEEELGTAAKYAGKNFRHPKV
In test [3] the test system is pre-adipocytes undergoing adipogenesis. The test is described as follows: Adipogenesis lipid accumulation (Oil Red O staining). Format: cell-based. Particulars: without adipogenesis-inducing factors.
For test [4], the system named is PEPCK expression in HEK cells. The test is described as follows: PEPCK expression in kidney cells. Format: cell-based. The following applies: 1 μg/mL, 24 h. The text has this: FIG. 10. […] Error=SD; *=P<0.05 compared to the no drug (DMSO-treated) group. […] Error=SD; *=P<0.05 for reduced PEPCK expression compared to the no drug (DMSO-treated) group.

T1 sequence (P25704 whole entry): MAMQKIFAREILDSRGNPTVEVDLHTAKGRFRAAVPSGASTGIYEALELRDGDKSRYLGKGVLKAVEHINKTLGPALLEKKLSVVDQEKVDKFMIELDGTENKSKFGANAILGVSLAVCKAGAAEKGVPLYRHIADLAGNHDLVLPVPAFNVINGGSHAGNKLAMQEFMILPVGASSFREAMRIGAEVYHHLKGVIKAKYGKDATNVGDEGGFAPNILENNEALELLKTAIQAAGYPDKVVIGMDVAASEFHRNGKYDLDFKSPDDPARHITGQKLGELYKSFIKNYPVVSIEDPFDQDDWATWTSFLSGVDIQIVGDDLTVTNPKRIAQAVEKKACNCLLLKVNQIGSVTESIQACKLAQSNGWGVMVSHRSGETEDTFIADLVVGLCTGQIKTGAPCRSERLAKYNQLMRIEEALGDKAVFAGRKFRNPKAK
recombinant enolase from Schistosoma mansoni, sequence (Q27877 whole entry): as the sequence (Q27877 whole entry) above

Take `[F-].[Na+]` [NaF, sodium fluoride, reference compound]: the “treatment concentration giving enolase activity level approximated by 2.5 μM ENOblock” value in test [1] turned out to be 1 mM.
Take `Cc1cc(O)c2c(c1)C(=O)c1cc(O)cc(O)c1C2=O` [emodin, 6-methyl-1,3,8-trihydroxyanthraquinone, reference compound]: in the test with zebrafish larvae, the “glucose uptake in larvae (2-NBDG fluorescence microscopy)” value is recorded as “enhanced glucose uptake in a similar but more intense pattern compared to the zebrafish treated with ENOblock”. Further, in the test on zebrafish larvae (72 hpf larvae, 4 h, vs 2-NBDG alone), the “2-NBDG fluorescence signal intensity in the eye” value is given as “induced significantly greater fluorescent tagged glucose uptake in the zebrafish eye”.
On to `OC(c1cc(C(F)(F)F)nc2c(C(F)(F)F)cccc12)C1CCCCN1` (stereo not shown) [mefloquine], for which the “direct binding to recombinant enolase” value in test [2] is listed as “could not directly bind to recombinant enolase from this parasite”. In addition, the “inhibition of purified enolase activity” value on purified enolase is on record as “could not inhibit purified enolase activity”.
Regarding insulin: insulin, the “lipid accumulation in preadipocytes (Oil Red O, microscopy)” value in test [3] was “still induced lipid accumulation”. Further, the PEPCK expression result in test [4] was “did not reduce PEPCK expression”.
